Data from US20070202141A1, “Synthetic Aggregation Pheromone For Manipulating The Behaviour Of Codling Moth, Cydia Pomonella, Larvae” (PHERO TECH INC., priority 2004, published 2007).

Test system: female Mastrus ridibundus antenna
Assay: coupled gas chromatographic-electroantennographic detection (GC-EAD)
Details: Porapak Q extract of cocoon-spinning larvae; FIG. 2
From the text: Aliquots of 20 CSLHE of Porapak Q-captured volatiles were subjected to analysis by coupled gas chromatographic-electroantennographic detection (GC-EAD) (Arm et al. 1975) using an antenna of Mastrus ridibundus, a specialist parasitic wasp of C. pomonella prepupae, as the electroantennographic detector. Using antennae from female M. ridibundus, instead of C. pomonella larvae, in these analyses was necessary because the antennae of C. pomonella larvae are too small for electrophysiolocial studies. It was also justified because host-seeking female M. ridibundus respond to the pheromone produced by cocoon-spinning C. pomonella larvae. In these GC-EAD analyses, 10 components (8 visible in FIG. 2) elicited responses from M. ridibundus antennae.
FIG. 2 illustrates flame ionization detector (FID) and electroantennographic detector (EAD: female Mastrus ridibundus antenna) responses to 10 CSLHE of Porapak Q extract. Chromatography: Hewlett Packard (HP) 5890A gas chromatograph equipped with a fused silica column (30 m×0.32 mm ID) coated with DB-23 (J & W Scientific, Folsom, Calif. 95630, USA); linear flow velocity of carrier gas: 35 cm/sec; injector and FID detector temperature: 240° C.; temperature program: 1 min at 50° C., 10° C./min to 220° C. […]

## C=C(C)C1CC=C(C)CC1 (single isomer, unassigned; (+)) [(+)-limonene]
  electroantennographic detector (EAD) response: not antenally active
